Data: patent US20060234987A1, “Neuroprotective benzo 1 3 oxathiol 2 ones” (priority 2003, published 2006)
Entries after “also recorded” stand apart in the source; their conditions may differ. Like-named read-outs stand apart in the source and are kept apart here.

Legend:
SHP1 = target: T1, SHP1 (Homo sapiens, UniProt P29350); assay: Phosphatase profile: SHP1 inhibition (DIFMUP fluorescence); assay type: biochemical
T1 construct: made in house; host or cells: adenovirus vector
Experimental: (§1) A) SHP1 and SHP2: SHP1 and SHP2 adenovirus vectors were prepared. SHP1 and SHP2 were independently over expressed, isolated and purified using FPLC. Enzyme was diluted to 1000-1400 FU/min. Enzyme (45 μL) was uniformLy plated in 96 well plates and treated with serial dilutions of compound (2 μL in DMSO). Compound and enzyme are allowed to incubate for 30 minutes at RT before the addition of DIFMUP (100 μM). The solutions are allowed to incubate at RT for 10 minutes prior to reading the fluorescence, to provide IC50 curves using LSW Data Analysis Tool Box (MDL).

LAR = target: T2, LAR (Homo sapiens, UniProt P10586); assay: LAR Assay; assay type: biochemical; conditions: Table 6
T2 construct: purchased BIOMOL Research Laboratories, Inc
T2 sequence (P10586 30-1907, species assumed): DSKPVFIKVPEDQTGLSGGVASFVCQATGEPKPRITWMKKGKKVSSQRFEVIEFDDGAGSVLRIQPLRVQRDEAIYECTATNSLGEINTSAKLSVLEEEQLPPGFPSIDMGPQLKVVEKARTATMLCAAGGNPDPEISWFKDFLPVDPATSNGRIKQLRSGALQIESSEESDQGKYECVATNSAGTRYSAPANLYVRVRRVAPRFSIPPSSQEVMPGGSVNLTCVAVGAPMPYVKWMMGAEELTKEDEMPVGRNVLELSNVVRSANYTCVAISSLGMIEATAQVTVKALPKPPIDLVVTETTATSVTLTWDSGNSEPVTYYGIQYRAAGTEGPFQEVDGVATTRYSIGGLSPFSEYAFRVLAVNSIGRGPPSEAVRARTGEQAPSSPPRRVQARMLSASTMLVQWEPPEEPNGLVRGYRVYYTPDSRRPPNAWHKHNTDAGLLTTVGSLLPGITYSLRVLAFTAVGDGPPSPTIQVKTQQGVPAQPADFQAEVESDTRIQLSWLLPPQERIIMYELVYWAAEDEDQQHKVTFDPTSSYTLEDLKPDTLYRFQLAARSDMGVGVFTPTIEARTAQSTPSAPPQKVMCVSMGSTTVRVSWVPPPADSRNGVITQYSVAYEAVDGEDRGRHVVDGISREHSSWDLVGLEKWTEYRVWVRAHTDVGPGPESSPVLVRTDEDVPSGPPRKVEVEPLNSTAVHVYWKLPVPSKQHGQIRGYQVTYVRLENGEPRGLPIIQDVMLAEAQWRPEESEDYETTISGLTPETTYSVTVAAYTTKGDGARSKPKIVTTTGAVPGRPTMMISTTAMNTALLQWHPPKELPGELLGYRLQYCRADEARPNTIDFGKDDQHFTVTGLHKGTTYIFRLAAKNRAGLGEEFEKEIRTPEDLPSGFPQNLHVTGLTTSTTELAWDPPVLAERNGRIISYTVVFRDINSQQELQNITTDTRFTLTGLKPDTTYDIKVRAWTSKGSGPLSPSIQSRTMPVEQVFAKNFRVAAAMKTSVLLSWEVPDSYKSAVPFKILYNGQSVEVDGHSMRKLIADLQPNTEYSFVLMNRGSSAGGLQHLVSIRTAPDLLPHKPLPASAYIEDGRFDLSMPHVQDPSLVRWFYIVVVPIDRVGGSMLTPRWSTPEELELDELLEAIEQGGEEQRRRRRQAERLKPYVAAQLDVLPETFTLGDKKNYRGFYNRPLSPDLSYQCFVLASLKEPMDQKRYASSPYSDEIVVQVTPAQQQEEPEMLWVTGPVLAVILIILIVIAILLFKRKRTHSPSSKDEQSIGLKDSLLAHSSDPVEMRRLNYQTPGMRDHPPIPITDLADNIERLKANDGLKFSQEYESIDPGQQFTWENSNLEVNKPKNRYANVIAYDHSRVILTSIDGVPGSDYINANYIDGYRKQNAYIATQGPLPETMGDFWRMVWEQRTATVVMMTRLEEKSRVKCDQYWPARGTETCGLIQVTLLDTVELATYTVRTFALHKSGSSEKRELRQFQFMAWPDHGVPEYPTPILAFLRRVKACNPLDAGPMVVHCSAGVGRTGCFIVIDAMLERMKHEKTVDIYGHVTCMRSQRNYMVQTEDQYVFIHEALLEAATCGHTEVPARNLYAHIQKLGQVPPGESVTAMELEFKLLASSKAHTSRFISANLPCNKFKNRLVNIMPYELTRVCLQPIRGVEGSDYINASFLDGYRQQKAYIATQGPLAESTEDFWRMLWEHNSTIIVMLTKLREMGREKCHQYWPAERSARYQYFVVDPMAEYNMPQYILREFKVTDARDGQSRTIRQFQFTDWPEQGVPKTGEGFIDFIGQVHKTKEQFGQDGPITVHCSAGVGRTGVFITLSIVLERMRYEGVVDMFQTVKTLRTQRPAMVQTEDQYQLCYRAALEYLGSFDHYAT
Experimental: C) LAR Assay: Inhibition of the phosphatase LAR was performed according to reported procedures (Cho, H. Biochemistry 1991, 30, 6210; 1992, 31, 133; Cho, H. Prot. Sci., 1993, 2, 977). LAR was purchased from BIOMOL Research Laboratories, Inc.

SHP2 = target: T3, SHP2 (Homo sapiens, UniProt Q06124); assay: Phosphatase profile: SHP2 inhibition (DIFMUP fluorescence); assay type: biochemical; conditions: Table 6
T3 construct: made in house; host or cells: adenovirus vector
T3 sequence (Q06124 1-593): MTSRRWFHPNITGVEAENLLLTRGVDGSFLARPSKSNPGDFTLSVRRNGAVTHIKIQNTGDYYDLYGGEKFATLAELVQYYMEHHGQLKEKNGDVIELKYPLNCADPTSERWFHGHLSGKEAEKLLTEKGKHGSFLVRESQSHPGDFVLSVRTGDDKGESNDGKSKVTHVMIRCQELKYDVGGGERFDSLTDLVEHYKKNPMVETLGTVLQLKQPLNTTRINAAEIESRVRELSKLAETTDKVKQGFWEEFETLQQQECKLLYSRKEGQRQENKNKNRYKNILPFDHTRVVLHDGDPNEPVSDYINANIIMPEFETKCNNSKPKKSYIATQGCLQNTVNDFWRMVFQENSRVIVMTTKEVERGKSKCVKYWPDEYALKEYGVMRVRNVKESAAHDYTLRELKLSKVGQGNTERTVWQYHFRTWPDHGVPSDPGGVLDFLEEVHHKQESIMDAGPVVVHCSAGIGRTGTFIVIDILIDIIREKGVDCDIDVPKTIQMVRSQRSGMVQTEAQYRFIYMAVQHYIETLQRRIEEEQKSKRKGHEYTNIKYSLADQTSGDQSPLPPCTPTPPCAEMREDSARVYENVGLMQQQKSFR
Experimental: as §1

TrkA = TrkA Phosphorylation Assay in PC12 cells; assay type: cell-based; conditions: compound 10-50 μM, NGF 10 ng/mL, compared with NGF 50 ng/mL, Western blot/autoradiograph
Experimental: Lane PC12 624 cells not treated with NGF; Lane B—PC12 624 cells treated with NGF (50 ng/mL) for 24 hrs; Lane C—PC12 624 cells treated with NGF (50 ng/mL) for 30 minutes; Lane D—PC12 624 cells treated with NGF (10 ng/mL) and compound 23 (50 μM); Lane E—PC12 624 cells treated with NGF (10 ng/mL) and compound 23 (40 μM), Lane F—PC12 624 cells treated with NGF (10 ng/mL) and compound 23 (30 μM); Lane G—PC12 624 cells treated with NGF (10 ng/mL) and compound 23 (20 μM); Lane H—PC12 624 cells treated with a NGF (10 ng/mL) and compound 23 (10 μM); Lane I—PC12 624 cells treated with NGF (50 ng/mL) for 24 hours, and re-treated with NGF (50 ng/mL) for 30 minutes; Lane J—PC12 624 cells treated with NGF (50 ng/mL) for 30 minutes.
TrkA phosphorylation may be monitored using Trk anti-bodies and Western blot analysis. […] In PC12 expressing cells, this effect is most robust at 30 minutes when 50 ng/mL of NGF is used.
TrkA Phosphorylation Assay: Culture media was removed from cultured PC12 cells (106-107, 50% confluent) and media containing NGF (1 to 50 ng/mL), 0.1% BSA, and compound (1 to 30 μM) was added. The cells were incubated for 1 to 60 minutes, the media was removed and the cells washed twice with ice cold TBS solution. […]

SCG ex-plant = assay: Neurite out-growth in SCG ex-plants with minimal NGF; assay type: cell-based; conditions: 30 μM compound, 1 ng/mL NGF, after 2 days
Experimental: FIG. 3A is an SCG ex-plant cultured in the absence of NGF. No neurite extensions are visible. FIG. 3B. is an SCG ex-plant cultured in the presence of compound 23 (30 μM).
In order to determine if these compounds were capable of augmenting NGF signaling in vitro, compound was added to cultured SCG neurons in the presence of ‘minimal’ quantities of NGF. […] Similar results were obtained using NGF differentiated PC12 cells (not shown).

T1 sequence (P29350 whole entry): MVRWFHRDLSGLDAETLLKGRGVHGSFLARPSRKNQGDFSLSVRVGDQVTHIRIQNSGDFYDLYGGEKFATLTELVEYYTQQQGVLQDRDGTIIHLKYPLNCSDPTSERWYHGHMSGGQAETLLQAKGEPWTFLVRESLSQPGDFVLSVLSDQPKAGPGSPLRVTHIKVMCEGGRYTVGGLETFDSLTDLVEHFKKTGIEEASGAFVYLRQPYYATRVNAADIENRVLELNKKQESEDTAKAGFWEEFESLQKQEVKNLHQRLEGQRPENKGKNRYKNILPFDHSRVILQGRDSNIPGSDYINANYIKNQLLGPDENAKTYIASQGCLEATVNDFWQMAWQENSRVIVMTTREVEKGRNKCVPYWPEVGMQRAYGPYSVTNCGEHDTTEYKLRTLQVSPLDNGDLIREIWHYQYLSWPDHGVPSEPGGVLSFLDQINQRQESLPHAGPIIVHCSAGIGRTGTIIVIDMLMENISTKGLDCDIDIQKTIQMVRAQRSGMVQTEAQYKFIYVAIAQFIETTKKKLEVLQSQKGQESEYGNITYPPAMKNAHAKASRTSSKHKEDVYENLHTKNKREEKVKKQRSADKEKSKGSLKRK

| SMILES | IC50 (SHP1; Table 6, read-out: SHP1 IC50) [µM] | LAR IC50 (LAR) | IC50 (SHP2) [µM] | TrkA phosphorylation (TrkA) | IC50 (SHP1; FIG. 1 legend, read-out: SHP1 IC50 (FIG. 1 inhibition curve)) [µM] | IC50 (LAR) [µM] | neurite outgrowth (SCG ex-plant) |
| --- | --- | --- | --- | --- | --- | --- | --- |
| O=c1oc2c(Sc3ccc4ccccc4c3)cc(O)c(Sc3ccc4ccccc4c3)c2s1 [Compound 30, 4,7-Bis-((2-naphthyl)sulfanyl)-5-hydroxybenzo[1,3]oxathiol-2-one] | 5.41 | no inh. | 18.4 | – | – | – | – |
| O=c1oc2c(Sc3ccc4ccccc4c3)cc(O)cc2s1 [Compound 23, 5-Hydroxy-7-((2-naphthy)sulfanyl)benzo[1,3]oxathiol-2-one] | 10.9 | – | 16.5 | maintains the level of TrkA phosphorylation even after 24 hours; also recorded: Comparable levels of TrkA phosphorylation | 10.6 | > 100 | Numerous ordered neurites are present; also recorded: visibly comparable to that observed under ‘optimal’ NGF concentrations |
